The values below come from patent US11479546B2, “Antimalarial hexahydropyrimidine analogues” (UCB Biopharma SRL, priority 2018, dated 2022).

The structures appear in SMILES notation.

The subject of this assay is Plasmodium falciparum 3D7. The assay can be described thus: P. falciparum 3D7 asexual blood stage assay, Assay Procedure Version 2 (SYBR green readout). The format is cell-based. The following applies: Plasmodium falciparum, 3D7, Erythrocyte, 72 h, Version 2 of the assay procedure (asterisk *); 72 h incubation in infected erythrocytes; 50,000 nM to 15 nM. The procedure:
Asexual Blood Stage Assay
The assay used to measure the effect of test compounds on a bloodstream stage of Plasmodium falciparum 3D7 strain employs SYBR green as the readout. This is a dye that binds to double stranded deoxyribonucleic acid (DNA) with a resulting increase in fluorescence, allowing detection of P. falciparum DNA in infected erythrocytes, and thereby providing a measure of parasite growth and propagation.
P. falciparum Culture Maintenance
Erythrocytes (A+blood) were prepared for both parasite culture and assay by washing 4 times with incomplete media (15.9 g RPMI 1640 (25 mM HEPES, L-glutamine), 1 g NaHCO3, 2 g glucose, 400 μL gentacin (500 mg/mL), 2 mL hypoxanthine solution (13.6 g/L in 0.1M NaOH pH 7.3) in 1 litre of media). The cells were centrifuged at 1800 g for 5 minutes, before decanting the supernatant and re-suspending in fresh incomplete media. On the final wash, the cells were re-suspended in complete media (incomplete media with 5 g/L AlbumaxII), and centrifuged at 1800 g for 3 minutes. This cell sediment was treated as 100% haematocrit.
P. falciparum 3D7 was cultured in erythrocytes at 5% haematocrit in complete media at 37° C. (1% O2, 3% CO2, balance N2). Cultures were split on a weekly basis to achieve a 1% parasitaemia in erythrocites at 5% haematocrit in fresh media. Culture media is replaced by fresh media every other day (2 times during the week).
[formula] where A=% inhibition at bottom; B=% inhibition at top; C=EC50; D=slope; x=inhibitor concentration; and y=% inhibition. […] Assay Procedure—Version 2
On day 1, test compounds were added to assay plates using Echo dispensing technology ([…] and 20 points titration). 50 nL of each compound dilution was added to 50 μL of culture (5% haematocrit, 0.5% parasitaemia) and incubated for 72 h at 37° C. (1% O2, 3% CO2, balance N2). Final concentrations of test compounds ranged from 50,000 nM to 15 nM, in […].
On day 4, 10 μL SYBR green (Invitrogen S7563 supplied as 10,000× concentrate in DMSO) pre-diluted to 3× concentrate with Lysis buffer (20 mM Tris pH 7.9, 5% EDTA, 0.16% w/v, 1.6% TX100 v/v) was added to the cultures and incubated in the dark, overnight, at room temperature.
On day 5, fluorescent signal was measured using a BioTek plate reader (excitation 485 nm, emission 528 nm). All data were processed using IDBS ActivityBase. Raw data were converted into percent inhibition through linear regression by setting the high inhibition control (mefloquine) as 100% and the no inhibition control (DMSO) as 0%. Quality control criteria for passing plates were as follows: Z′>0.5, S:B>3, % CV(no inhibition control)<15. The formula used to calculate Z′ is:
[formula] where μ denotes the mean; σ denotes the standard deviation; p denotes the positive control; and n denotes the negative control.
All EC50 curve fitting was undertaken using the following bi-phasic two site dose response using XLfit model 300 (IDBS):
[formula] where A=100 minus the top of the upper curve 1 and the bottom of lower curve; B=Hill slope; log(C)=IC50 concentration at lower site; log(D)=IC50 concentration at upper site; x=inhibitor concentration; and y=% inhibition.
One may read the IC50 as the concentration needed to halve the response being measured. Lower therefore signals greater potency. In turn, `C[C@@]1(c2cccc(Nc3cnc(OC(F)F)c4ccccc34)c2Cl)CC(=O)N(C2CCOCC2)C(=N)N1` [Example 95, (6S)-6-(2-Chloro-3-{[1-(difluoromethoxy)isoquinolin-4-yl]amino}phenyl)-2-imino-6-methyl-3-(tetrahydropyran-4-yl)hexahydropyrimidin-4-one] registered an IC50 of 0.456 µM.

For the compound `C[C@@H]1C[C@H](N2C(=N)N[C@](C)(c3cccc(Nc4ccc(Cl)cc4)c3Cl)CC2=O)CCO1` (relative stereo) [Example 155, (6S)-6-[2-Chloro-3-(4-chloro-anilino)phenyl]-2-imino-6-methyl-3-[(2R*,4R*)-2-methyl-tetrahydropyran-4-yl]-hexahydropyrimidin-4-one], the IC50 came out at 0.071 µM.

`CC(C)(C)c1ncc(Nc2cccc([C@]3(C)CC(=O)N(C4CCC(F)(F)CC4)C(=N)N3)c2Cl)cn1` [Example 141, (6S)-6-{3-[(2-tert-Butyl-pyrimidin-5-yl)amino]-2-chloro-phenyl]-3-(4,4-difluoro-cyclohexyl)-2-imino-6-methyl-hexahydropyrimidin-4-one] came in with an IC50 of 0.18 µM.

Consider `C[C@@]1(c2cccc(Nc3cccc4c3OC(F)(F)O4)c2Cl)CC(=O)N(C2CCOCC2)C(=N)N1` [Example 68, (6S)-6-{2-Chloro-3-[(2,2-difluoro-1,3-benzodioxol-4-yl)amino]phenyl}-2-imino-6-methyl-3-tetrahydropyran-4-yl-hexahydropyrimidin-4-one], for which the IC50 was 0.524 µM.

`C[C@@]1(c2cccc(Nc3cnccc3C#N)c2Cl)CC(=O)N(C2CCOCC2)C(=N)N1` [Example 48, 3-{2-Chloro-3-[(4S)-2-imino-4-methyl-6-oxo-1-(tetrahydro-pyran-4-yl)hexahydropyrimidin-4-yl]anilino}pyridine-4-carbo-nitrile] had an IC50 of 0.386 µM.

For the compound `Cc1ccc(Nc2cccc([C@]3(C)CC(=O)N([C@H]4C[C@](O)(C(F)(F)F)C4)C(=N)N3)c2Cl)cn1` [Example 152, (6S)-6-{2-Chloro-3-[(6-methyl-pyridin-3-yl)amino]phenyl}-3-[3-hydroxy-3-(trifluoromethyl)-cyclobutyl]-2-imino-6-methyl-hexahydropyrimidin-4-one (cis isomer)], the IC50 was determined as 0.613 µM.

For the compound `COc1nc(C)ccc1Nc1cccc([C@]2(C)CC(=O)N(C3CCOCC3)C(=N)N2)c1Cl` [Example 55, (6S)-6-{2-Chloro-3-[(2-methoxy-6-methylpyridin-3-yl)-amino]phenyl}-2-imino-6-methyl-3-(tetrahydropyran-4-yl)hexahydropyrimidin-4-one], the midpoint of inhibition, the IC50, lay at 0.433 µM.

As to `C[C@@]1(c2cccc(Nc3cc(F)c4ccnn4c3)c2Cl)CC(=O)N(C2CCOCC2)C(=N)N1` [Example 70, (6S)-6-{2-Chloro-3-[(4-fluoro-pyrazolo[1,5-a]pyridin-6-yl)-amino]phenyl}-2-imino-6-methyl-3-(tetrahydropyran-4-yl)hexahydropyrimidin-4-one], half-maximal inhibition (IC50) was put at 0.478 µM.

For `CC(C)Oc1cccc(Nc2cccc([C@]3(C)CC(=O)N(C4CCOCC4)C(=N)N3)c2Cl)c1` [Example 74, (6S)-6-[2-Chloro-3-(3-isopropoxyanilino)phenyl]-2-imino-6-methyl-3-(tetrahydro-pyran-4-yl)hexahydropyrimidin-4-one], the IC50 was found to be 1.29 µM.

In turn, `C[C@@]1(c2cccc(Nc3ccc(C4CC4)nc3)c2Cl)CC(=O)N(C2CCOCC2)C(=N)N1` [Example 99, (6S)-6-{2-Chloro-3-[(6-cyclo-propylpyridin-3-yl)amino]-phenyl}-2-imino-6-methyl-3-(tetrahydropyran-4-yl)-hexahydropyrimidin-4-one] registered an IC50 of 0.066 µM.

As to `COc1ccncc1Nc1cccc([C@]2(C)CC(=O)N(C3CCOCC3)C(=N)N2)c1Cl` [Example 54, (6S)-6-{2-Chloro-3-[(4-methoxypyridin-3-yl)amino]-phenyl}-2-imino-6-methyl-3-(tetrahydropyran-4-yl)-hexahydropyrimidin-4-one], the IC50 amounted to 0.655 µM.
